From patent US20200289667A1, “Targeting Macrophages to Modulate Electrical Conduction in the Heart” (The General Hospital Corporation, priority 2016, published 2020)

Experiments:
Type in all cases: in vivo, mouse
AV block = experiment: Surface ECG of Cd11b^DTR mice with AV block after intravenous drug administration; conditions: Cd11b^DTR mice with second and third degree AV block; intravenous (atropine 1 mg/kg, epinephrine 2 mg/kg, isoproterenol 20 mg/kg)
Procedure: (§1) Mice were anesthetized as described above and surface ECG was recorded using subcutaneous electrodes connected to the Animal Bio amplifier and PowerLab station (AD Instruments). The ECG channel was filtered between 0.3 and 1000 Hz and analyzed using LabChart Pro software. Atropine (1 mg/kg), epinephrine (2 mg/kg) or isoproterenol (20 mg/kg) were administered intravenously, and changes were examined before and after injection.

AV node macrophages = experiment: Flow cytometric quantification of AV node macrophages after depletion
Procedure: (§2) Mice were put into parabiosis using either C57BL/6 and Cx3cr1^GFP/+ or Cd11b^DTR and Cx3cr1^GFP/+ mice as described previously (12). Tamoxifen was given as a solution in corn oil (Sigma) to Cx3cr1^wt/CreER ChR2^fl/fl or Cx3cr1^wt/CreER Cx43^fl/fl mice by intraperitoneal injection. Animals received 5 doses of 2 mg of tamoxifen with a separation of 24 hours between doses. Cx3cr1^wt/CreER ChR2^wt/fl and Cx3cr1^wt/CreER Cx43^fl/fl mice were analyzed 2 and 7 days post-tamoxifen treatment, respectively. Macrophage depletion was achieved by a single intraperitoneal injection of diphtheria toxin (DT, 25 ng/g body weight) in Cd11b^DTR mice (12). C57BL/6 mice injected with DT were used as controls. Clodronate liposomes were kindly provided by Dr. Kory J. Lavine and contained 18 mg of clodronate per mL of liposomes. Depletion studies were performed by intraperitoneal injection of 100 μL/30 g mouse (13).
Peripheral blood for flow cytometric analysis was collected by retro-orbital bleeding using heparinized capillary tubes (BD Diagnostics) and red blood cells were lysed with 1× red blood cell lysis buffer (BioLegend). To determine electrolyte levels, blood was collected by cardiac puncture and electrolytes were measured on serum with EasyLyte PLUS analyzer (Medica). For organ harvest, mice were perfused through the LV with 10 mL of ice-cold PBS. […]

AV node conduction = AV node conduction by ECG telemetry, surface ECG and EP study after macrophage depletion
Procedure: as §2
EP studies were performed under general anaesthesia induced by administering 5% isoflurane driven by an oxygen source into an induction chamber. Anaesthesia was subsequently maintained with 1-2% isoflurane in 95% O2. For EP study, an octapolar catheter (EPR-800) was inserted into the right jugular vein and positioned in the right atrium and ventricle. Programmed electrical stimulation was performed using a standard protocol with 120 ms and 100 ms drive trains and single extrastimuli to measure function of the AV node and the conduction properties of atrial and ventricular tissue. The Wenckebach cycle length was measured by progressively faster atrial pacing rates. Retrograde (VA) conduction cycle length was measured by progressively slower ventricular pacing rates. Sinus node function was determined by measuring the sinus node recovery time (SNRT) following 30 seconds of pacing at three cycle lengths (120, 100 and 80 ms). SNRT was divided by the basic cycle length to adjust for the intrinsic heart rate.
Continuous ambulatory ECG telemetry was performed by implanting an ETA-F10 transmitter during general anaesthesia with isoflurane. The transmitter was implanted in the abdomen and the leads were tunneled subcutaneously to the upper right and lower left chest resulting in a lead II position. Telemetry data was recorded continuously via a receiver placed under the mouse cage. Data analysis was performed using LabChart Pro software.
as §1

## CC(C)NCC(O)c1ccc(O)c(O)c1 (stereo not drawn) [isoproterenol]
AV block
  attenuation of AV block: did not attenuate

## CNC[C@H](O)c1ccc(O)c(O)c1 [epinephrine]
AV block
  attenuation of AV block: did not attenuate

## CN1[C@@H]2CC[C@H]1C[C@@H](OC(=O)C(CO)c1ccccc1)C2 (stereo partly drawn) [atropine]
AV block
  attenuation of AV block: did not attenuate

## diphtheria toxin [DT]
AV node macrophages; C57BL/6 control mice, three days after DT injection
  number of AV node macrophages: did not alter
AV node macrophages; Cd11b^DTR mice, single intraperitoneal dose of 25 ng/g body weight
  time of maximum depletion of AV node macrophages: three
AV node conduction; C57BL/6 control mice, surface ECG
  induction of AV block: did not induce AV block
AV node conduction; Cd11b^DTR mice, ECG telemetry, after DT injection
  progression of AV block: progressively evolved into second and third degree AV block
AV node conduction; Cd11b^DTR mice, ECG telemetry, single dose 25 ng/g
  onset of first degree AV block (all mice): one
AV node conduction; Cx3cr1^GFP/+ mice joined in parabiosis with Cd11b^DTR mice, surface ECG three days after DT
  induction of AV block: did not induce AV block
